Test results published in paper PMC9241915, “Functional Analysis of Feedback Inhibition-Insensitive Variants of N-Acetyl Glutamate Kinase Found in Sake Yeast Mutants with Ornithine Overproduction” (Microbiology Spectrum, 2022).

Assays:
Assay in all cases: PK/LDH-coupled NADH oxidation at […] nm
Assay type in all cases: biochemical
[1] = target: T1, NAGK (N-acetyl glutamate kinase, Arg6) (Saccharomyces cerevisiae, UniProt Q01217)
T1 construct: gene ARG5

[2] = target: T2, NAGK (N-acetyl glutamate kinase, Arg6) (Saccharomyces cerevisiae, UniProt Q01217, T340S)
T2 construct: gene ARG5
T2 sequence (Q01217 58-513 T340S): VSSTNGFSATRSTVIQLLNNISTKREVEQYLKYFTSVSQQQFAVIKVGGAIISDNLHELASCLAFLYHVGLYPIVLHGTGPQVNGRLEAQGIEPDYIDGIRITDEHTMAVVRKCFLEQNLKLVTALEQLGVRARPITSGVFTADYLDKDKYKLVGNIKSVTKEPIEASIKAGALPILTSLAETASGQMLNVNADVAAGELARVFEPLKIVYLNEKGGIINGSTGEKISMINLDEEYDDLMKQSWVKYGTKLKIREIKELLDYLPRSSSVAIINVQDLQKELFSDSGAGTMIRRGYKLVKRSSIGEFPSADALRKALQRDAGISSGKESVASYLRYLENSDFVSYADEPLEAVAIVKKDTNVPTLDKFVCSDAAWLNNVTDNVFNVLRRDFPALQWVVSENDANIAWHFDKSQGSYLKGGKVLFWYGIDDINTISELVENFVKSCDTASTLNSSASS

[3] = target: T3, NAGK (N-acetyl glutamate kinase, Arg6) (Saccharomyces cerevisiae, UniProt Q01217, V267A)
T3 construct: gene ARG5
T3 sequence (Q01217 58-513 V267A): as the sequence (Q01217 58-513 T340S) above, with V210A, S283T counted along it

[4] = target: T4, NAGK (N-acetyl glutamate kinase, Arg6) (Saccharomyces cerevisiae, UniProt Q01217, C119Y)
T4 construct: gene ARG5
T4 sequence (Q01217 58-513 C119Y): as the sequence (Q01217 58-513 T340S) above, with C62Y, S283T counted along it

[5] = target: T5, NAGK (N-acetyl glutamate kinase, Arg6) (Saccharomyces cerevisiae, UniProt Q01217, T340A)
T5 construct: gene ARG5
T5 sequence (Q01217 58-513 T340A): as the sequence (Q01217 58-513 T340S) above, with S283A counted along it

[6] = target: T6, NAGK (N-acetyl glutamate kinase, Arg6) (Saccharomyces cerevisiae, UniProt Q01217, T340E)
T6 construct: gene ARG5
T6 sequence (Q01217 58-513 T340E): as the sequence (Q01217 58-513 T340S) above, with S283E counted along it

[7] = target: T7, NAGK (N-acetyl glutamate kinase, Arg6) (Saccharomyces cerevisiae, UniProt Q01217, T340N)
T7 construct: gene ARG5
T7 sequence (Q01217 58-513 T340N): as the sequence (Q01217 58-513 T340S) above, with S283N counted along it

[8] = target: T8, NAGK (N-acetyl glutamate kinase, Arg6) (Saccharomyces cerevisiae, UniProt Q01217, T340R)
T8 construct: gene ARG5
T8 sequence (Q01217 58-513 T340R): as the sequence (Q01217 58-513 T340S) above, with S283R counted along it

[9] = target: T9, NAGK (N-acetyl glutamate kinase, Arg6) (Saccharomyces cerevisiae, UniProt Q01217, T340L)
T9 construct: gene ARG5
T9 sequence (Q01217 58-513 T340L): as the sequence (Q01217 58-513 T340S) above, with S283L counted along it

T1 sequence (Q01217 58-513): as the sequence (Q01217 58-513 T340S) above, with S283T counted along it

Question: For `N=C(N)NCCC[C@H](N)C(=O)O` [arginine], which IC50 [1] is on record?
Answer: 90 µM

Question: And the IC50 [2]?
Answer: 170 ± 120 µM

Question: And the IC50 [3]?
Answer: 2830 ± 160 µM

Question: What about the IC50 [4] of the same compound?
Answer: 780 ± 50 µM

Question: And the IC50 [5]?
Answer: 2250 ± 200 µM

Question: What about the IC50 [6] of the same compound?
Answer: 6870 ± 1000 µM

Question: And the IC50 [7]?
Answer: 24000 ± 5360 µM

Question: And the IC50 [8]?
Answer: 2480 ± 670 µM

Question: And the IC50 [9]?
Answer: 10500 ± 800 µM
